The results in this text go back to patent US20250059165A1, “PIPERIDINYLPYRIDINYLCARBONITRILE DERIVATIVES AS INHIBITORS OF GLUTAMINYL-PEPTIDE CYCLOTRANSFERASE AND GLUTAMINYL-PEPTIDE CYCLOTRANSFERASE LIKE PROTEIN” (Boehringer Ingelheim International GmbH, priority 2023, published 2025).

The IC50 is the concentration that inhibits the measured activity by half. For orientation: efflux ratio means a quotient of directional permeabilities that is used to spot active efflux. What is called Papp A→B is how fast a substance crosses the layer from the apical side. Higher therefore signals ready permeation.

The target in one data set is T1, QPCT (Homo sapiens, UniProt Q16769).
T1 construct: purchased Origine (OriGene) TP700028
The experiment in a line: Assay A: biochemical QPCT activity assay (MALDI-TOF MS, CD47 peptide substrate). The settings on record: 0.5 nM enzyme, 20 μM CD47 peptide substrate; read-out: Inhibition of QPCT: IC50. On the procedure:
(§1) QPCT or QPCTL dependent conversion of N-terminal glutamine to pyroglutamate of CD47 was monitored via MALDI-TOF MS. Test compounds were dissolved in 100% DMSO and serially diluted into clear 1,536-well microtiter plates. […] The plates were incubated for 10 min in a humidified incubator at 24° C. Subsequently, 2.5 μL of CD47 peptide substrate surrogate (^19[…]^33) was added to each well (final concentration: 10 μM for QPCTL/20 μM for QPCT). […] The plates were sealed with an adhesive foil, mixed for 30 s at 1,000 rpm and stored at room temperature until preparation of the MALDI target plates. MALDI target plates were prepared as described previously. […] QPCT or QPCTL activity was monitored by calculating the ratio between product and internal standard signals followed by normalization to high (100% activity) and low (0% activity) controls. Determination of compound potencies was obtained by fitting the dose-response data to a four-parameter logistical equation.

The subject of data set [1] is SIRPα signalling induced by A549 cells. The data set can be described thus: Assay B: SIRPα signalling assay using A549 cells. Format: cell-based. The settings on record: Homo sapiens, 48 h compound incubation, Jurkat PathHunter SIRPαV1 reporter cells, read-out: Inhibition of SIRPα signalling induced by A549 cells: IC50. On the procedure:
(§2) Two cell types are independently used: the Raji cell line (lymphoblast-like human cell line derived from B lymphocytes from a Burkitt's lymphoma patient in 1963) and A549 cells (adenocarcinomic human alveolar basal epithelial cells).
(§3) Test compounds were dissolved in 100% DMSO and serially diluted into a white 384-well microtiter cell culture plate (PerkinElmer #60076780 in case of Raji assay; PDL-coated plates Greiner #781945 in case of A549 assay). 5000 Raji cells (ATCC #CC86) or 5000 A549 cells (ATCC #CCL-185) in Assay Complete Cell Plating reagent 30 (DiscoverX 93-0563R30B) were added per well. The assay plate was incubated for 48 h at 37° C., 95% humidity and 5% CO2. 15000 reporter cells (Jurkat PathHunter SIRPαV1, DiscoverX #93-1135C19) were added to each well, and the plate was incubated for 5 h at 37° C., 95% humidity and 5% CO2. Bioassay reagent 1 of the PathHunter Bioassay detection kit (DiscoverX 93-0001) was added to each well of the plate using a multichannel pipette followed by a 15 min incubation at room temperature. Afterwards bioassay reagent 2 was added followed by […] incubation at room temperature (incubation in the dark). The analysis of the data was performed using the luminescence signal generated by beta-galactosidase in the PathHunter reporter cell line. The luminescence measurement was done using a Pherastar Multi-Mode Reader. Dose-response curves & IC50 data were calculated with 4-parameter sigmoidal dose response formula.

The nature of data set [2]: Assay C: permeability in CACO-2 cells. Format: in vitro ADME. The conditions noted are these: human, pH 7.2; for efflux ratio: Caco-2, Permeability B-A/Permeability A-B; for Papp A→B: Caco-2, apical to basolateral. On the procedure: Caco-2 cells (1−2×10^5 cells/1 cm^2 area) are seeded on filter inserts (Costar transwell polycarbonate or PET filters, 0.4 µm pore size) and cultured (DMEM) for 10 to 25 days. Compounds are dissolved in appropriate solvent (like DMSO, 1-20 mM stock solutions). […] The transport solution (TL) is applied to the apical or basolateral donor side for measuring A-B or B-A permeability (3 filter replicates), respectively. Samples are collected at the start and end of experiment from the donor and at various time intervals for up to 2 hours also from the receiver side for concentration measurement by HPLC-MS/MS or scintillation counting. Sampled receiver volumes are replaced with fresh receiver solution. Efflux Ratio (ER)=Permeability B-A/Permeability A-B
(Caco-2 cells form a polarised layer with tight junctions and transporters.)

Data set [3] concerns SIRPα signalling induced by Raji cells. The data set can be described thus: Assay B: SIRPα signalling assay using Raji cells. It counts as cell-based. The settings on record: Homo sapiens, 48 h compound incubation, Jurkat PathHunter SIRPαV1 reporter cells, read-out: Inhibition of SIRPα signalling induced by Raji cells: IC50. On the procedure:
as §2, §3

The target of the next data set is T2, QPCTL (Homo sapiens, UniProt Q9NXS2).
T2 construct: made in house
The data set can be described thus: Assay A: biochemical QPCTL activity assay (MALDI-TOF MS, CD47 peptide substrate). The settings on record: 0.5 nM enzyme, 10 μM CD47 peptide substrate; read-out: Inhibition of QPCTL: IC50. On the procedure: as §1

T2 sequence (Q9NXS2 whole entry): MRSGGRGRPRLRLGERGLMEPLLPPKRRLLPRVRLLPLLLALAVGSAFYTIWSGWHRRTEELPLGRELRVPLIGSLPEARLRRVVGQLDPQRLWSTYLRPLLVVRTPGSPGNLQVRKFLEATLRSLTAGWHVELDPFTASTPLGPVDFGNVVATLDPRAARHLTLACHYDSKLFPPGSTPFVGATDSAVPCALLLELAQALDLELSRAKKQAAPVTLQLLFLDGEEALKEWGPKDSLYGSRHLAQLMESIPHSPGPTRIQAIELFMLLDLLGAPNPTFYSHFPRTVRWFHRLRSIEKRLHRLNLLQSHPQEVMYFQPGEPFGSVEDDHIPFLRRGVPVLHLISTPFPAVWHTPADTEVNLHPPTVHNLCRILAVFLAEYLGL
T1 sequence (Q16769 29-361): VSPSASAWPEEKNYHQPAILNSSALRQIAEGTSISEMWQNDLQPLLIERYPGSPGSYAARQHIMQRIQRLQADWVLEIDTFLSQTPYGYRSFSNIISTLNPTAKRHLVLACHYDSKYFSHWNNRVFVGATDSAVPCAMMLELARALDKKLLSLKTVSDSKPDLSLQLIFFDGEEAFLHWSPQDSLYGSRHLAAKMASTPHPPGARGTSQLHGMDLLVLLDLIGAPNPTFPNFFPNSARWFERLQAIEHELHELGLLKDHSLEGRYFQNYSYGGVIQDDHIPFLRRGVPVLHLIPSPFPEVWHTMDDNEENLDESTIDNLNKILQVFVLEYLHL

On to `Cn1cc(-c2ccc3c(-c4nccc(C#N)c4N4CCC(F)(c5nncn5C)CC4)cnn3n2)cn1` [Example 25], for which the half-inhibitory concentration (IC50) at QPCT was 6 nM; in data set [1], 78 nM; in data set [3] it was 150 nM; on QPCTL it was 1 nM. For the same molecule, in data set [2], the efflux ratio worked out at 7.7. This molecule displayed a Papp A→B in data set [2] of 5.3 ×10⁻⁶ cm/s.

With `Cn1cnnc1C1(F)CCN(c2c(C#N)ccnc2-c2cnn3nc(-c4cscc4C#N)ccc23)CC1` [Example 26], the half-maximal inhibitory concentration (IC50) came to 2 nM on QPCT, 101 nM in data set [1], 148 nM in data set [3] and 3 nM at QPCTL. In addition, the efflux ratio in data set [2] turned out to be 11.5. This molecule also yielded an apical-to-basolateral permeability (Papp A→B) in data set [2] of 7.2 ×10⁻⁶ cm/s.

In the case of `Cn1cnnc1C1(F)CCN(c2c(C#N)ccnc2-c2cnn3nc(-c4ccc(Cl)cc4)ccc23)CC1` [Example 27], the half-inhibitory concentration (IC50) worked out at 3 nM on QPCT, 52 nM in data set [1], 106 nM in data set [3] and 4 nM on QPCTL. Also, in data set [2], the efflux ratio was found to be 2.2. The molecule also displayed a Papp A→B in data set [2] of 16 ×10⁻⁶ cm/s.

Turning to `Cn1cnnc1C1(F)CCN(c2c(C#N)ccnc2-c2cnn3nc(-c4ccccc4Cl)ccc23)CC1` [Example 29], the IC50 at QPCT turned out to be 1 nM; in data set [1], 27 nM; in data set [3], 64 nM; on QPCTL, 2 nM. Moreover, the efflux ratio in data set [2] was found to be 1.7. Also, the apical-to-basolateral permeability (Papp A→B) in data set [2] was 39 ×10⁻⁶ cm/s.

In the case of `CC(C)c1ccccc1-c1ccc2c(-c3nccc(C#N)c3N3CCC(F)(c4nncn4C)CC3)cnn2n1` [Example 30], the IC50 at QPCT is 1 nM; in data set [1] it was 17 nM; in data set [3], 87 nM; at QPCTL, 2 nM. In addition, the efflux ratio in data set [2] stood at 0.7. Moreover, in data set [2], the Papp A→B turned out to be 46 ×10⁻⁶ cm/s.

On to `Cn1cnnc1C1(F)CCN(c2c(C#N)ccnc2-c2cnn3nc(-c4ccccc4F)ccc23)CC1` [Example 31], for which the IC50 on QPCT amounted to 3 nM; in data set [1] it was 31 nM; in data set [3] it was 54 nM; at QPCTL, 3 nM. Moreover, the efflux ratio in data set [2] amounted to 1.2. The molecule further had a Papp A→B in data set [2] of 54 ×10⁻⁶ cm/s.

`Cn1cnnc1C1(F)CCN(c2c(C#N)ccnc2-c2cnc3nc(-c4cccc(Cl)c4)ccn23)CC1` [Example 33]: the IC50 was determined as 2 nM at QPCT, 30 nM in data set [1], 53 nM in data set [3] and 1 nM at QPCTL. Moreover, the efflux ratio in data set [2] was found to be 6.2. Besides, the Papp A→B in data set [2] worked out at 13 ×10⁻⁶ cm/s.

In the case of `Cn1c(N)nnc1C1CCN(c2ncccc2-c2ccc(F)nc2)CC1` [Prior art Compound 6, reference compound], the half-maximal inhibitory concentration (IC50) was 1 nM on QPCT, 12 nM in data set [1], 8 nM in data set [3] and 1 nM on QPCTL. Moreover, the efflux ratio in data set [2] was 65. In addition, in data set [2], the Papp A→B amounted to 0.2 ×10⁻⁶ cm/s.
